Data published in patent publication US7407951B2, “Pyrrolobenzodiazepines” (Spirogen Limited, priority 2002, dated 2008).

Key:
[1] = test system: approximately 60 human tumour cell lines; assay: NCI in vitro cytotoxicity screen (SRB assay); type: cell-based; settings: GI50 in Moles, 48 hour continuous exposure
Procedure: The National Cancer Institute (NCI), Bethesda, Md. USA has available an in vitro cytotoxicity screen which consists of approximately 60 human tumour cell lines against which compounds are tested at a minimum of five concentrations each differing 10-fold. A 48 hour continuous exposure protocol is used, where cell viability or growth is estimated with an SRB protein assay.
The test compounds were evaluated against approximately 60 human tumour cell lines. The NCI screening procedures were described in detail by Monks and co-workers (Monks, A et al., Journal of the National Cancer Institute, 1991, 83, 757). Briefly, cell suspensions were diluted according to the particular cell type and the expected target cell density (5000-40,000 cells per well based on cell growth characteristics), and added by pipette (100 μL) into 96-well microtitre plates. The cells were allowed a preincubation period of 24 hours at 37° C. for stabilisation. Dilutions at twice the intended test concentration were added at time zero in 100 μL aliquots to the wells. The test compounds were evaluated at five 10-fold dilutions (10^−4, 10^−5, 10^−6, 10^−7 and 10^−[…]). The test compounds were incubated for 48 hours in 5% CO2 atmosphere and 100% humidity. The cells were then assayed using the sulphorhodamine B assay. […]

Breast MACL MCF7 = assay: In vitro clonogenic assay (two-layer agar), breast; type: cell-based, human; settings: continuous exposure, 8-20 days, colony count
Procedure: (§1) In order to determine the activity of the compounds synthesised, solid human tumour xenografts growing subcutaneously in serial passages in thymus aplastic nude mice (Naval Medical Research Institute, USA nu/nu strain) were removed under sterile condition, mechanically disaggregated and subsequently incubated with an enzyme cocktail consisting of collagenase (41 U/ml, Sigma), DNAse I (125 U/ml, Roche), hyaluronidase (1000 U/ml, Sigma) and dispase II (1.0 U/ml) in RPMI 1640-Medium (Life Technologies) at 37° C. for 30 minutes. Cells were passed through sieves of 200 μm and 50 μm mesh size and washed twice with sterile PBS-buffer. The percentage of viable cells was determined in a Neubauer-hemocytometer using trypan blue exclusion. The cells generated were as follows: • Breast MACL MCF7 • […] • Lung 629L • Melanoma MEXF 462NL
(§2) The clonogenic assay was performed in a 24-well format according to a modified two-layer agar assay introduced by Hamburger, A. W. and Salmon, S. E., Science, 197, […] (1977). The bottom layer consisted of 0.2 ml/well of Iscove's Modified Dulbecco's Medium (supplemented with 20% fetal calf serum and 1% gentamicin) and 0.75% agar. 4×10^4 to 8×10^4 cells were added to 0.2 ml of the same culture medium supplemented with 0.4% agar and plated in 24-multiwell dishes onto the bottom layer. The test compounds were applied by continuous exposure (drug overlay) in 0.2 ml culture medium. Each dish included six control wells containing the vehicle and drug treated groups in triplicate at 6 concentrations. Cultures were incubated at 37° C. and 7.5% CO2 in a humidified atmosphere for 8-20 days and monitored closely for colony growth using an inverted microscope. Within this period, in vitro tumour growth led to the formation of colonies with a diameter of >50 μm. At the time of maximum colony formation, counts were performed with an automatic image analysis system (OMNICOM FAS IV, Biosys GmbH). 24 hours prior to evaluation, vital colnies were stained with a sterile aqueous solution of 2-(4-iodophenyl)-3-(4-nitrophenyl)-5-phenyltetrazolium chloride (1 mg/ml, 100 μl/well).
(§3) The IC50 values of the test compounds were determined by plotting compound concentration versus cell viability.

Renal RXF 944L = assay: In vitro clonogenic assay (two-layer agar), renal; type: cell-based, human; settings: continuous exposure, 8-20 days, colony count
Procedure: as §1, §2, §3

Lung 629L = assay: In vitro clonogenic assay (two-layer agar), lung; type: cell-based, human; settings: continuous exposure, 8-20 days, colony count
Procedure: as §1, §2, §3

Melanoma MEXF 462NL = assay: In vitro clonogenic assay (two-layer agar), melanoma; type: cell-based, human; settings: continuous exposure, 8-20 days, colony count
Procedure: as §1, §2, §3

melanoma cell lines = assay: NCI hollow fibre assay, melanoma variation; type: in vivo, human; settings: 6 cell lines; for IP + SC score: combined score, 10 or more referred for xenograft testing; for IP score: intraperitoneal fibres in mice; for IP score / SC score: drug IP QDx4, 2 doses, 2 points per dose giving 50% or greater reduction in viable cell mass; for SC score: subcutaneous fibres in mice
Description: (§4) The Biological testing Branch of the Developmental Therapeutics Program of the NCI has adopted a preliminary in vivo screening tool for assessing the potential anticancer activity of compounds identified by the large scale in vitro cell screen. For these assays, human tumour cells are cultivated in polyvinylidene (PVDF) hollow fibres, and a sample of each cell line is implanted into each of two physiologic compartments (intraperitoneal and subcutaneaous) in mice. Each test mouse received a total of 6 fibres (3 intraperitoneally and 3 subcutaneously) representing 3 distinct cancer cell lines. These mice are treated with potential antitumour compounds at each of 2 test doses by the intraperitoneal route using a QD×4 treatment schedule. Vehicle controls consist of 6 mice receiving the compound diluent only. The fibre cultures are collected on the day following the last day of treatment. To assess anticancer effects, the viable cell mass is determined for each of the cell lines using a formazyn dye (MTT) conversion assay. From this, the % T/C can be calculated using the average optical density of compound treated samples divided by the average optical; density of the vehicle controls. In addition, the net increase in cell mass can be determined for each sample, as a sample of fibre cultures are assessed for viable cell mass on the day of implantation into mice. Thus, the cytostatic and cytocidal capacities of the test compound can be assessed.
(§5) Generally, each compound is tested against a minimum of 12 human cancer cell lines. This represents a total of 4 experiments since each experiment contains 3 cell lines. The data are reported as % T/C for each of the 2 compound doses against each of the cell lines with separate values calculated for the intraperitoneal and subcutaneous samples.
(§6) Compounds are selected for further in vivo testing in standard subcutaneous xenograft models on the basis of several hollow fibre assay criteria. These include: (1) a % T/C of 50 or less in 10 of the 48 possible test combinations (12 cell lines×2 sites ×2 compound doses); (2) activity at a distance (intraperitoneal drug/subcutaneous culture) in a minimum of 4 of the 24 possible combinations; and/or (3) a net cell kill of 1 or more of the cell lines in either implant site. To simplify evaluation, a points system has been adopted which allows rapid evaluation of the activity of a given compound. For this, a value of 2 is assigned for each compound dose which results in a 50% or greater reduction in viable cell mass. The intraperitoneal and subcutaneous samples are scored separately so that criteria (1) and (2) can be evaluated. Compounds with a combined IP+SC score of 20, a SC score of 8 or a net cell kill of one or more cell lines are referred for xenograft testing. […] In addition to these criteria, other factors (e.g. unique structure, mechanism of action) may result in referral of a compound for xenograft testing without the compound meeting these criteria.
(§7) Certain compounds of the invention were tested in variations of these assays, to assess their activity against renal and melanoma cell lines. In the melanoma assay, only 6 cell lines are used, and therefore compounds with a combined IP+SC score of 10 or a SC score of 4 are referred for xenograft testing. In the renal assay, only three cell lines are used and therefore compounds with a combined IP+SC score of 5 or a SC score of 2 are referred for xenograft testing.

renal cell lines = assay: NCI hollow fibre assay, renal variation; type: in vivo, human; settings: three cell lines; for IP + SC score: combined score, 5 or more referred for xenograft testing; for IP score: intraperitoneal fibres in mice; for IP score / SC score: drug IP QDx4, 2 doses, 2 points per dose giving 50% or greater reduction in viable cell mass; for SC score: subcutaneous fibres in mice
Description: as §4, §5, §6, §7

## COc1cc2c(cc1OC)C(=O)N1C=C(c3ccco3)C[C@H]1C=N2 [Compound 25, (11aS)-1,11a-dihydro-7,8-dimethoxy-2-(2-furan)-5H-pyrrolo[2,1-c][1,4]benzodiazepin-5-one]
[1]
  MG_MID (average log GI50 across all cell lines tested): −7.18

## CCc1ccc(C2=CN3C(=O)c4cc(OC)c(OC)cc4N=C[C@@H]3C2)cc1 [Compound 21, (11aS)-1,11a-dihydro-7,8-dimethoxy-2-(4-ethylbenzene)-5H-pyrrolo[2,1-c][1,4]benzodiazepin-5-one]
Breast MACL MCF7
  IC50: < 0.1 nM
Renal RXF 944L
  IC50: < 0.1 nM
Lung 629L
  IC50: 0.36 nM
Melanoma MEXF 462NL
  IC50: < 0.1 nM
Melanoma cell lines
  IP + SC score: 10
  IP score: 10
  SC score: 0

## COc1cc2c(cc1OC)C(=O)N1C=C(c3ccc(C(C)(C)C)cc3)C[C@H]1C=N2 [Compound 13, (11aS)-1,11a-dihydro-7,8-dimethoxy-2-(4-tert-butylbenzene)-5H-pyrrolo[2,1-c][1,4]benzodiazepin-5-one]
Breast MACL MCF7
  IC50: 0.26 nM
Renal cell lines
  IP + SC score: 6
  IP score: 4
  SC score: 2
Melanoma cell lines
  IP + SC score: 6
  IP score: 2
  SC score: 4

## COc1cc2c(cc1OC)C(=O)N1C=C(c3ccccc3C)C[C@H]1C=N2 [Compound 19, (11aS)-1,11a-dihydro-7,8-dimethoxy-2-(2-methylbenzene)-5H-pyrrolo[2,1-c][1,4]benzodiazepin-5-one]
Breast MACL MCF7; Homo sapiens
  IC50: 0.35 nM
Lung 629L; Homo sapiens
  IC50: 1 nM
Melanoma cell lines
  IP + SC score: 8
  IP score: 4
  SC score: 4

## COc1ccc(C2=CN3C(=O)c4cc(OC)c(OC)cc4N=C[C@@H]3C2)cc1 [Compound C2]
Breast MACL MCF7; Homo sapiens
  IC50: 1.96 nM
Renal RXF 944L; Homo sapiens
  IC50: 1.5 nM
Lung 629L; Homo sapiens
  IC50: 5 nM
Melanoma MEXF 462NL; Homo sapiens
  IC50: 2.85 nM

## COc1cc2c(cc1OC)C(=O)N1C=C(c3ccc(C)cc3)C[C@H]1C=N2 [Compound C3, reference compound]
Breast MACL MCF7; Homo sapiens
  IC50: 1.59 nM
Renal RXF 944L; Homo sapiens
  IC50: 0.89 nM
Lung 629L; Homo sapiens
  IC50: 8 nM
Melanoma MEXF 462NL; Homo sapiens
  IC50: 2 nM
Renal cell lines
  IP + SC score: 2
  IP score: 2
  SC score: 0
Melanoma cell lines
  IP + SC score: 2
  IP score: 0
  SC score: 2

## COc1cc2c(cc1OC)C(=O)N1C=C(c3ccc(F)cc3)C[C@H]1C=N2 [Compound 17, (11aS)-1,11a-dihydro-7,8-dimethoxy-2-(4-fluorobenzene)-5H-pyrrolo[2,1-c][1,4]benzodiazepin-5-one]
Renal RXF 944L; Homo sapiens
  IC50: 0.17 nM

## COc1cc2c(cc1OC)C(=O)N1C=C(c3ccc(Cl)cc3)C[C@H]1C=N2 [Compound 15, (11aS)-1,11a-dihydro-7,8-dimethoxy-2-(4-chlorobenzene)-5H-pyrrolo[2,1-c][1,4]benzodiazepin-5-one]
Breast MACL MCF7; Homo sapiens
  IC50: 0.15 nM

## COc1cc2c(cc1OC)C(=O)N1C=C(c3c(C)cccc3C)C[C@H]1C=N2 [Compound 27, (11aS)-1,11a-dihydro-7,8-dimethoxy-2-(2,6-dimethylbenzene)-5H-pyrrolo[2,1-c][1,4]benzodiazepin-5-one]
Renal cell lines
  IP + SC score: 8
  IP score: 4
  SC score: 4

## COc1cc2c(cc1OC)C(=O)N1C=C(c3ccccc3)C[C@H]1C=N2 [Compound C1, reference compound]
Breast MACL MCF7; Homo sapiens
  IC50: 19.3 nM
Renal RXF 944L; Homo sapiens
  IC50: 20.5 nM
Lung 629L; Homo sapiens
  IC50: 44.5 nM
Melanoma MEXF 462NL; Homo sapiens
  IC50: 40 nM
Renal cell lines
  IP + SC score: 0
  IP score: 0
  SC score: 0
Melanoma cell lines
  IP + SC score: 4
  IP score: 4
  SC score: 0

## COc1cc2c(cc1OC)C(=O)N1C=C(c3ccc4ccccc4c3)C[C@H]1C=N2 [Compound 11, (11aS)-1,11a-dihydro-7,8-dimethoxy-2-(2-napthyl)-5H-pyrrolo[2,1-c][1,4]benzodiazepin-5-one]
Breast MACL MCF7; Homo sapiens
  IC50: 0.22 nM

## COc1cc2c(cc1OC)C(=O)N1C=C(c3cccs3)C[C@H]1C=N2 [Compound 23, (11aS)-1,11a-dihydro-7,8-dimethoxy-2-(2-thiophene)-5H-pyrrolo[2,1-c][1,4]benzodiazepin-5-one]
Breast MACL MCF7; Homo sapiens
  IC50: 0.35 nM
[1]
  MG_MID (average log GI50 across all cell lines tested): −6.34
